In US6034134A, “1-Amino-alkylcyclohexane NMDA receptor antagonists” (Merz + Co. GmbH & Co., priority 1998, dated 2000):
Where a name gives a salt, the structure may show the parent alone. Read-outs that look alike come from different tables or passages of the source.

Assays:
[1] = Traction reflex test (myorelaxant action) in mice, therapeutic index versus MES; format: in vivo; details: ED50 for traction reflex impairment divided by ED50 for MES; for TI Tract: 30 min; for selectivity ratio at 0.5 h: mouse, in vivo, ip, read-out: TI Tract
Procedure: (§1) NMR female mice (18-28 g) housed 5 per cage were used for the maximal electroshock (MES) and motor impairment tests. […] All compounds were dissolved in 0.9% saline.
(§2) The MES test was performed together with tests for myorelaxant action (traction reflex) and motor coordination (rotarod). For the traction reflex test mice were placed with their forepaws on a horizontal rod and were required to place all 4 paws on the wire within 10 seconds. To test ataxia (motor coordination) mice were placed on rotarod (5 rpm) and were required to remain on the rod for 1 minute. […] These tests were followed by MES (100 Hz, 0.5 second shock duration, 50 mA shock intensity, 0.9 ms impulse duration, Ugo Basile) applied through corneal electrodes. The presence of tonic convulsions was scored (tonic extension of hind paws with minimum angle to the body of 90°). The aim was to obtain ED50 s for all parameters scored (anticonvulsive activity and motor side effects) with use of the Litchfield Wilcoxon test for quantal dose responses. Division of the ED50 for side effects (ataxia or myorelaxation) by the ED50 for antagonism of electroshock convulsions was used as a therapeutic index (TI). […]

[2] = Procedure: All animals were kept with water and food ad libitum under a 12 hour light-dark cycle (light on at 6 a.m.) and at a controlled temperature (20±0.5° C.). All e experiments were performed between 10 a.m. and 5 p.m. Tested agents were injected 30 min. i.p. before the induction of convulsions if not stated otherwise (see below). All compounds were dissolved in 0.9% saline.
[3] = test system: cortical neurones; test: Excitotoxicity: glutamate toxicity in cultured cortical neurones (MTT); format: cell-based, rat; details: Rattus norvegicus, Cortical neurone
Procedure: Cortical neurones were obtained from cerebral cortices of 17/18 day old fetal rats (Wistar), in general following the dissociation procedure described by. After short trypsinization and gentle trituration with fire-polished Pasteur pipettes, the cell suspension was washed by centrifugation. Cells were suspended in serum-free Neurobasal medium with B27 supplement (GIBCO) before plating onto poly-L-lysine (Sigma; 0.2 mg/ml, 20 h, 4° C.) and laminin (Sigma; 2 μg/ml, 1 h, 37° C.)-coated 96-well plates (Falcon, Primaria) at a density of 5×10^4 cells/well. Cortical neurones were maintained at 37° C. in humidified 10% CO2 /90% air. […] The medium was changed first after 4 days in vitro and then every 4 days by replacing 2/3 of the medium with astrocyte-conditioned medium. Cortical neurones between day 12 and 14 in culture were used for the experiments.
New-born rat astrocytes were isolated non-enzymatically according to the method of [24]. Briefly, both hemispheres were dissected from 2-day-old rats, passed through an 80 μm gauze, and triturated with Pasteur pipettes. Cell suspension was made in Dulbecco's modified essential medium (DMEM, Gibco) supplemented with 10% fetal calf serum (FCS, Hyclone), 2 mM glutamine (Gibco) and 50 μg/ml gentamycin and transferred into untreated, plastic culture flasks (Corning; […]). Two days after plating the flasks were shaken for 10 minutes on a rotary platform (150 U/min) to remove microglial cells. The cultures were grown to confluency within 14 days, and the culture medium was changed twice weekly. Thereafter, the glial monolayers were extensively washed with serum-free Neurobasal medium (Gibco) to remove the serum. Flasks were then shaken several times to remove oligodendrocytes and neurones. To obtain conditioned medium from primary astrocytes, the cultures were incubated with fresh Neurobasal medium supplemented with B27 andglutamine. Every 2-3 days the conditioned medium was collected and replaced by fresh medium up to 4 times.
Exposure to EAA was performed in serum-free Neurobasal medium containing 100 μM glutamate and the drug to be tested. After 20 h of incubation, the cytotoxic effect was morphologically examined under a phase contrast microscope and biochemically quantified by measuring cell viability with the MTT test (Promega). This calorimetric assay measures the reduction of a tetrazolium component (MTT) into an insoluble formazan product by the mitochondria of living cells. After incubation of the cortical neurones with the dye solution for approximately 1-4 hours, a solubilization solution was added to lyse the cells and solubilize the colored product (incubation overnight at 37° C., 10% CO2, 90% RH). These samples were then read using an Elisa plate reader (Thermomax, MWG Biotech) at a wavelength of 570 nm. The amount of color produced was directly proportional to the number of viable cells.
(§3) IC50 s in patch clamp, excitotoxicity, and binding studies were calculated according to the four parameter logistic equation using the Grafit computer program (Erithacus Software, England). Ki value for binding studies were then determined according to Cheng and Prusoff. Binding values presented are means±SEM of 3-5 determinations (each performed in duplicate). […] Pearson product moment correlation analysis (Sigma Stat, Jandel Scientific) was used to compare in vitro potencies and in vivo anticonvulsant activity.

[4] = Maximal electroshock (MES)-induced convulsions in mice; format: in vivo; details: Mus musculus, ip, 0.5 h, mice, i.p., read-out: MES ED50
Procedure: as §1, §2

[5] = target: NMDA receptor; test: [3H]-(+)-MK-801 binding to rat cortical membranes; details: for Ki: read-out: MK-801 Ki, Table 9, Cheng-Prusoff with Kd for MK-801 of […]; for IC50: read-out: [3H] MK-801 IC50, Table 7, footnote calls the values Ki
Procedure: Male Sprague-Dawley rats (200-250 g) were decapitated and their brains were removed rapidly. The cortex was dissected and homogenized in 20 volumes of ice-cold 0.32 M sucrose using a glass-Teflon homogenizer. The homogenate was centrifuged at 1000 ×g for 10 minutes. The pellet was discarded and the supernatant centrifuged at 20,000 ×g for 20 minutes. The resulting pellet was re-suspended in 20 volumes of distilled water and centrifuged for 20 minutes at 8000 ×g. Then the supernatant and the buffy coat were centrifuged three times (48,000 ×g for 20 minutes) in the presence of 50 mM Tris-HCl, pH 8.0. All centrifugation steps were carried out at 4° C. After resuspension in 5 volumes of 50 mM Tris-HCl, pH 8.0 the membrane suspension was frozen rapidly at -80° C. On the day of assay the membranes were thawed and washed four times by resuspension in 50 mM Tris-HCl, pH 8.0 and centrifugation at 48,000 ×g for 20 minutes. The final pellet was suspended in assay buffer. The amount of protein in the final membrane preparation was determined according to the method of Lowry with some modifications. The final protein concentration used for our studies was between 250-500 μg/ml.
Membranes were re-suspended and incubated in 50 mM Tris-HCl, pH 8.0. […] Incubations were terminated using a Millipore filter system. The samples were rinsed three times with 2.5 ml ice cold assay buffer over glass fiber filters obtained from Schleicher & Schuell under a constant vacuum. Filtration was performed as rapidly as possible. Following separation and rinse, the filters were placed into scintillation liquid (5 ml; Ultima Gold) and radio activity retained on the filters was determined with a conventional liquid scintillation counter (Hewlett Packard, Liquid Scintillation Analyser).
as §3

[6] = Table 7, 100 μM glutamate, 20 h, read-out: Glut. Tox. IC50
[7] = Table 9, 100 μM glutamate, read-out: Glut Tox IC50
[8] = Table 8, 95% confidence limits in parentheses

SMILES	TI Tract [1]	Min Lethality ([2]; mouse, in vivo, ip)	IC50 [3, 6]	IC50 [3, 7]	ED50 ([4]; Table 7, 30 min before)	ED50 [4, 8]	Ki [5]	IC50 [5]	selectivity ratio at 0.5 h [1]	Min Lethality ([2]; i.p., minimal lethal dose)	IC50 ([3]; 20 h, read-out: Glut. Tox. IC50)	IC50 ([3]; read-out: Glut Tox IC50)
CCC[C@H]1CCC[C@@](C)(N)C1 (relative stereo) [Mrz 2/628]	0.8	> 60 mg/kg	27.3 µM	27.3 µM	73.2 mg/kg	73.2 mg/kg	49.2 µM	35.6 µM	–	–	–	–
CC[C@@H]1CCC[C@@](C)(N)C1 (relative stereo) [Mrz 2/629]	0.9	100 mg/kg	> 300 µM	> 300 µM	58.5 mg/kg	58.5 mg/kg	49.3 µM	39.4 µM	–	–	–	–
CC[C@H]1CC(C)(C)C[C@@](C)(N)C1 (relative stereo) [Mrz 2/632]	2.7	> 30 mg/kg	10.9 µM	11.2 µM	11 mg/kg	11 mg/kg	2.88 µM	2 µM	–	–	–	–
CC[C@@H]1CC(C)(C)C[C@@](C)(N)C1 (relative stereo) [Mrz 2/633]	2.4	108 mg/kg	5.4 µM	6.1 µM	8.78 mg/kg	8.78 mg/kg	5.18 µM	6.8 µM	–	–	–	–
CCC[C@@H]1CC(C)(C)C[C@@](C)(N)C1 (relative stereo) [Mrz 2/635]	1.3	> 50 mg/kg	8.2 µM	8.18 µM	31.6 mg/kg	31.6 mg/kg	15 µM	7.8 µM	–	–	–	–
C[C@H]1CC(C)(C)C[C@@](C)(N)C1 (relative stereo) [Mrz 2/643]	–	> 50 mg/kg	12 µM	12 µM	18.6 mg/kg	18.6 mg/kg	4.66 µM	3.6 µM	1.3	–	–	–
C[C@@H]1C[C@H](C)C[C@@](C)(N)C1 [MRZ 2/680, 1,trans-3,trans-5-Trimethylcyclohexylamine hydrochloride]	–	> 50 mg/kg	–	35.6 µM	–	34.5 mg/kg	30 µM	–	0.7	–	–	–
C[C@@H]1C[C@H](C)C[C@](C)(N)C1 [MRZ 2/681, 1,cis-3,cis-5-Trimethylcyclohexylamine hydrochloride hydrate]	–	> 50 mg/kg	–	26.9 µM	–	27.9 mg/kg	19.2 µM	–	2.1	–	–	–
CC[C@H]1CC(C)(C)C[C@](C)(N)C1 [MRZ 2/682, (1R, 5S) trans-3-Ethyl-1,5,5-trimethylcyclohexylamine hydrochloride]	–	> 50 mg/kg	–	3.11 µM	–	7.6 mg/kg	1.99 µM	–	2.7	–	–	–
CC[C@H]1CC(C)(C)C[C@@](C)(N)C1 [MRZ 2/683, (1S, 5S) cis-3-Ethyl-1,5,5-trimethylcyclohexylamine hydrochloride hydrate]	–	> 50 mg/kg	–	5.08 µM	–	12.2 mg/kg	4.44 µM	–	2.7	–	–	–
CC12CC3CC(C)(C1)CC(N)(C3)C2 [Memantine, reference compound]	–	–	–	–	6.9 mg/kg	6.9 mg/kg	2.45 µM	0.7 µM	2.9	> 108 mg/kg	1.3 µM	1.4 µM
CC1(C)CC(N)CC(C)(C)C1 [Mrz 2/557]	1.0	> 70 mg/kg	6.7 µM	6.7 µM	43.9 mg/kg	43.9 mg/kg	19.9 µM	17.6 µM	–	–	–	–
